The record followed here is US7357944B2, “Liposomal analgesic drug compositions prepared in GMV using an ammonium sulfate gradient” (New York University, priority 1998, dated 2008).

Where two headings read alike, the source gives them in different places.

The test system of series [1] is mice. The conditions noted are these: mouse, in vivo, sc.
Protocol: (§2) In a control group, mice were injected with 0.15 ml nonliposomal bupivacaine at a concentration of 0.5%, the highest normally tolerated. Cooling was applied either over the injection site or over the abdomen contralateral to the injection site.
The test system of a further series is male Swiss-Webster mice. Kind of series: Analgesia (sensory block) after subcutaneous injection, response to cutaneous electrical stimulation. It counts as in vivo. Conditions: 0.15 ml at 0.5%. On the procedure: Analgesia was assessed in male Swiss-Webster mice, as described in Example 2, using response to cutaneous electrical stimulation. Prior to administering analgesic, the control vocalization threshold (current required to produce a vocalization response) was determined.
For testing, 150 μl of test solution was injected subcutaneously over the abdomen, and sensory block was assessed at regular intervals, i.e., 15 min for 0.5% BUP formulations and 30 min for 1% and 2% formulations. Failure to vocalize in response to the threshold current was taken as evidence of analgesia. Testing was terminated when two successive stimuli provoked a vocalization. Duration of analgesia was taken as the time from injection to the last stimulus at which no vocalization occurred.
(§1) Analgesia regressed within two hours (see FIG. 13).
The Institutional Animal Care and Use Committee approved all experiments. Male Swiss-Webster mice weighing 28±3 g were used. Animals had free access to food and water, and were maintained on a 12 hour dark-light cycle. Prior to testing, the hair overlying the abdomen was shaved. Analgesia was assessed using response to cutaneous electrical stimulation. […] The vocalization threshold was assessed prior to testing, and testing was carried out as described above.

Series [2] can be described thus: BUP partition between octanol and aqueous ammonium sulfate at various pH. The series is classed as physicochemical. Conditions: for logD: octanol/aqueous ammonium sulfate, read-out: BUP octanol/(NH4)2(SO4) partition coefficient (converted).
For series [3], the system named is mice. The conditions noted are these: mouse, in vivo. On the procedure:
as §1
To determine the effect on overall body temperature of this treatment, the rectal temperature was measured in all animals cooled over the site of injection (ipsalateral) or over the contralateral abdomen, using both GMV-encapsulated bupivacaine and nonencapsulated (plain) bupivacaine. […] For FIG. 14A, cooling was initiated at zero hours (with administration) and discontinued at nine hours; for FIG. 14B, cooling was initiated at zero hours and discontinued at one hour. There were no significant differences observed as a function of the site of cooling. […] Animals in the GMV group (FIG. 14A) returned to baseline body temperature within about 10 minutes after cessation of cooling.

In series [4] the test system is mice. Description: Tolerability of BUP concentration injected subcutaneously. Conditions: 0.15 ml injected.
Protocol: as §2
Series [5] can be described thus: pH-dependent aqueous solubility of BUP in 250 mM ammonium sulfate. The series is classed as physicochemical. Conditions: more concentrated solutions, pH higher than about 6. On the procedure:
In the present case, the liposomes were incubated with a 50 mg/ml solution of BUP HCl for 45 minutes at 60° C. During this process, the extraliposomal pH should be maintained at a pH less than about 6, e.g. about 5.5, to ensure BUP solubility and prevent precipitation. […] The data was produced by adding various levels of BUP, as indicated, to 250 mM ammonium sulfate at differing pH's. The samples were vortexed and centrifuged, and the amount of dissolved BUP in the supernatant was determined. […] Again, aqueous solubility substantially decreases between pH 6 and 8.

On to `CCCCN1CCCCC1C(=O)Nc1c(C)cccc1C` (stereo not drawn) [BUP, bupivacaine], for which the toxicity entry with mice [1] is recorded as “proved toxic”. Besides, in the series on male Swiss-Webster mice (s.c., mice, with or without cooling (FIG. 13)), the “time in which analgesia regressed” value is given as “two”. Also, the “effect of skin cooling (about 22° C.) on analgesia” value in the series on male Swiss-Webster mice (cooling at injection site or contralateral vs no cooling) is given as “no difference”. In addition, the logD was 0.0253 in series [2] (pH 2), -0.42 in series [2] (pH 4), -0.456 in series [2] (pH 6) and 1.18 in series [2] (pH 8). Besides, the “BUP, mg/ml in (NH4)2(SO4)” value came out at 2.30 mg/mL in series [2] (pH 2), 3.32 mg/mL in series [2] (pH 4), 3.62 mg/mL in series [2] (pH 6) and 0.32 mg/mL in series [2] (pH 8). Also, the “BUP, mg/ml in octanol” value in series [2] (pH 2) was 2.45 mg/mL; in series [2] (pH 4), 1.25 mg/mL; in series [2] (pH 6), 1.28 mg/mL; in series [2] (pH 8) it was 4.90 mg/mL. The “delayed return to normal body temperature after cessation of cooling” value in the series on mice [3] fell in the range of 25 to 35 min. For the same compound, in the series on mice [4], the “highest concentration normally tolerated” value worked out at 0.5%. Further, the “aqueous solubility of BUP (FIG. 2)” value in series [5] is listed as “large amounts of BUP precipitated”.
